# Experimental data reported in patent publication US12152012B2, “BRAG2 inhibitors and applications thereof” (CENTRE NATIONAL DE LA RECHERCHE SCIENTIFIQUE, priority 2018, dated 2024).
# Experiments:
# [1] = target: T1, BRAG2 (BRAG2^Sec7PH) (Homo sapiens, UniProt Q6DN90); test: Nucleotide exchange kinetics on liposomes, activation of myristoylated Arf1; format: biochemical
# T1 construct: human BRAG2^Sec7 (390-594) and BRAG2^Sec7PH (390-811); made in house
# Experimental: The effect of Bragsin1 on the GEF efficiency of representative human ArfGEFs was evaluated by fluorescence kinetics using highly purified recombinant Arf GTPases and ArfGEFs. In a first series of assays, the Sec7 domains of BIG1, a Golgi ArfGEF, and of ARNO, EFA6a and BRAG2, which function at the plasma membrane, were used. When tested in solution, Bragsin1 had no effect on the activation of Arf1 by any of these Sec7 domains (FIGS. 2a and 14). Separately, we reconstituted the activation of myristoylated Arf1 by the same ArfGEFs on liposomes using ArfGEF constructs that contain a membrane-binding domain (DCB-HUS domain for BIG1, PH domains for the other GEFs). […] BRAG2 activates several Arf isoforms, including the plasma membrane-located Arf6 isoform. […] Bragsin1 and Bragsin2 have the same IC50 towards BRAG2 ([…]) according to dose-response analysis, confirming that Bragsin1 and Bragsin2 can be used interchangeably (FIG. 2d). The specific inhibition of BRAG2 by Bragsin in vitro predicts that BRAG2 silencing by siRNA should yield the same phenotype as treatment by the small molecule. Silencing of BRAG2 induced the redistribution of TGN46 into tubular or punctate structures, which phenocopied the effects induced by Bragsin (FIGS. 2e, 17 and 18). […] Silencing of ARNO, which is located at the plasma membrane, had no effect on TGN46 distribution. Overexpression of BRAG2-mCherry rescued the dispersion of the TGN46 structure induced by Bragsin, which is consistent with the silencing experiments (FIG. 2f). Bragsin is a specific inhibitor of the ArfGEF BRAG2 in vitro and in cells according to these experiments. These oexperiments identify a mechanism of inhibition that requires the membrane to manifests itself.
# Bovine Δ17Arf1 and human Δ13Arf6, full-length myristoylated Arf1 and Arf6, human BRAG2^Sec7 (390-594) and BRAG2^Sec7PH (390-811), human EFA6^Sec7 (527-727) and EFA6^Sec7PHCt (527-1024), ARNO^Sec7 (50-256), BIG1^Sec7 (691-889), BIG1^DcbHusSec7 (2-888) and ARNO^Sec7PH (50-399) were expressed and purified as in (Benabdi, S. et al. Family-wide Analysis of the Inhibition of Arf Guanine Nucleotide Exchange Factors with Small Molecules: Evidence of Unique Inhibitory Profiles. Biochemistry 56, 5125-5133 (2017)) and references therein. BRAG2^Sec7PH mutants were purified as the wild type protein. Purification of human full-length Rac1 carrying a 6xHis tag in C-terminus and human TRIO^DH1PH1 (1232-1550) was described in (Peurois, F. et al. Characterization of the activation of small GTPases by their GEFs on membranes using artificial membrane tethering. Biochem J 474, 1259-1272 (2017)).
# Lipids (of natural origin) were from Avanti Polar Lipids, except NBD-PE from Sigma. Liposomes were prepared as described in (Aizel, K. et al. Integrated conformational and lipid-sensing regulation of endosomal ArfGEF BRAG2. PLOS Biol 11, e1001652 (2013)) and extruded at 0.2 μm. For the Arf GEF specificity studies, liposomes contained 48% phosphatidylcholine (PC), 20% phosphatidylethanolamine (PE), 30% phosphatidylserine (PS) and 2% phosphatidylinositol-4,5-bisphosphate (PIP2). For Rac activation assay, liposomes contained 43% PC, 20% PE, 10% PS, 20% cholesterol, 2% PIP2, 5% NiNTA lipids and 0.2% NBD-PE. To exclude aggregation or disruption of the liposomes, their size distribution was controlled before and after experiments by dynamic light scattering as described in (Benabdi, S. et al. Biochemistry 56, 5125-5133 (2017)). Dose-response and flotation assays were carried out with liposomes containing 37.9% PC, 20% PE, 20% PS, 2% PIP2, 20% cholesterol and 0.1% NBD-PE. Flotation assays were carried out as in 18.
# Nucleotide exchange kinetics were monitored by tryptophan fluorescence with excitation/emission wavelengths of 292/340 nm using a Cary Eclipse fluorimeter (Varian) at 37° C. and under continuous stirring as described in ^50,51. […]
# [2] = tested on: TGN46 (trans-Golgi network marker) in Hela cells; test: Immunostaining and confocal microscopy of Hela cells; format: cell-based, human; conditions: 50 μM
# T1 sequence (Q6DN90 512-933): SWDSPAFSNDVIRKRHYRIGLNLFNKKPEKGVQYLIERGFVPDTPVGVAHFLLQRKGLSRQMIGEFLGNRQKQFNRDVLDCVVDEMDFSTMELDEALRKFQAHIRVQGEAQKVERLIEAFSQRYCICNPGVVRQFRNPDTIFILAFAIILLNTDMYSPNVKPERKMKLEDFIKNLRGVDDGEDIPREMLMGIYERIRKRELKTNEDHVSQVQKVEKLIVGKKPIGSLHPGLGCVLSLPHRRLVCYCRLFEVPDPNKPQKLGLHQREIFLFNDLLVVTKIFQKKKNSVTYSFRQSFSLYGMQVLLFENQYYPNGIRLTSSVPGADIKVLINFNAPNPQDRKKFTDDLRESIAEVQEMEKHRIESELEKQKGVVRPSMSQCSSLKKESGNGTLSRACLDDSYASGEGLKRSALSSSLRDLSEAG
"Inhibition of BRAG2 in the presence of liposomes ([1]; 50 μM compound vs DMSO, myristoylated Arf1, liposomes)",Biological activity of hydrated derivative ([1]; derivative formed from Bragsin1 in aqueous solution),Compound,Dispersion of TGN46 marker [2]
strongly inhibits,,"COc1cc(OC)c2oc(C(F)(F)F)cc(=O)c2c1[N+](=O)[O-] [Bragsin3, 6,8-dimethoxy-5-nitro-2-(trifluoromethyl)-4H-chromen-4-one]",disperses
,biologically inactive,"Cc1ccc2c(c1[N+](=O)[O-])C(=O)CC(O)(C(F)(F)F)O2 (stereo not drawn) [Compound 13, 2-hydroxy-6-methyl-5-nitro-2-(trifluoromethyl)chroman-4-one]",
,,"COc1ccc2oc(C(F)(F)F)cc(=O)c2c1C(=O)O [Compound 6, 6-methoxy-4-oxo-2-(trifluoromethyl)-4H-chromene-5-carboxylic acid]",not capable to disperse
,,"COc1ccc2oc(C(F)(F)F)cc(=O)c2c1 [Compound 3, 6-methoxy-2-(trifluoromethyl)-4H-chromen-4-one]",not capable to disperse
,,"COc1ccc2oc(C(F)(F)F)cc(=O)c2c1C=O [Compound 5, 6-methoxy-4-oxo-2-(trifluoromethyl)-4H-chromene-5-carbaldehyde]",less effect
